The target of test [1] is Beta-2 adrenergic receptor (Homo sapiens, UniProt P07550). Put plainly: ADRB2 activation measured by internalization – cell-based, FAP fluorogen, flow cytometry, cherry pick 1, dose response (AID 588763). The test is classed as functional. (A flow cytometer gives signals particle by particle.)
The test system of test [2] is HEK293. Description: cells. As to conditions: Homo sapiens.
Test [3] addresses T1, Zinc finger protein mex-5 (Caenorhabditis elegans, UniProt Q9XUB2).
T1 sequence (Q9XUB2 whole entry): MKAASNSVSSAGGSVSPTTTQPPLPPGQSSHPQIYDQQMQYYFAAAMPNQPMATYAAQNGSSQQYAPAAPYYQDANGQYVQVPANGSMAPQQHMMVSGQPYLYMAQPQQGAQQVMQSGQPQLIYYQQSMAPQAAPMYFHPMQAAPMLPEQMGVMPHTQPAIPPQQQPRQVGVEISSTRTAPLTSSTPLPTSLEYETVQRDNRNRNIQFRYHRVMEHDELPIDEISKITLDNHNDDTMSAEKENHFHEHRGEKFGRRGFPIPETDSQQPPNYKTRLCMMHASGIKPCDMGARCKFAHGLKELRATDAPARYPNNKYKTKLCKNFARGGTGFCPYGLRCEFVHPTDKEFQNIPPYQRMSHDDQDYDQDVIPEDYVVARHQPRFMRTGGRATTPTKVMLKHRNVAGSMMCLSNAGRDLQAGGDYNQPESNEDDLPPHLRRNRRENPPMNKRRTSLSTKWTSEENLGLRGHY
Description: potency of MEX-5 RNA-binding blockers – biochemical, C. elegans, fluorescence polarization, dose response (AID 1960). A general note: In fluorescence polarisation assays a small probe gives low polarisation when free and higher when bound to something large.

In test [4] the target is T2, RNA-binding protein pos-1 (Caenorhabditis elegans, UniProt G5EF15).
T2 sequence (G5EF15 whole entry): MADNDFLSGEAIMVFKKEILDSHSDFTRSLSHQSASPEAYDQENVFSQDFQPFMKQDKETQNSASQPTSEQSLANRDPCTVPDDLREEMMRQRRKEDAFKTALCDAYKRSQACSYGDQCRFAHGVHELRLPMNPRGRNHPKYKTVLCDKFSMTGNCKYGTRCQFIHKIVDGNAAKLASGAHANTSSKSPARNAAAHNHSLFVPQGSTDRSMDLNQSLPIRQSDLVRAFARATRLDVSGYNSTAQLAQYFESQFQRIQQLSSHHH
Put plainly: disruptors of C. elegans POS-1 RNA interaction – biochemical, fluorescence polarization, dose response (AID 1964).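 Also: purified POS-1 fused to maltose binding protein made in E. coli; potency of compounds blocking POS-1 binding to fluorescent RNA.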

The test system of test [5] is CHO. Description: CHO cell viability loss, potency – luminescence, cytotoxicity control for TLR9-MyD88 binding inhibitor project, dose response (AID 588339).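 Also: CHO cells stably coexpressing TLR9 and MyD88 fusions from primary screen; compound exposure lasted 48 hours before viability readout.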 The test is classed as functional, cell-based, hamster. As to conditions: Cricetulus griseus.
The subject of test [6] is HEK293. Put plainly: cells. As to conditions: Homo sapiens. The source holds these as a separate data set.
Test [7] deals with T3, Cytochrome P450 1A2 (Homo sapiens, UniProt P05177).
T3 sequence (P05177 whole entry): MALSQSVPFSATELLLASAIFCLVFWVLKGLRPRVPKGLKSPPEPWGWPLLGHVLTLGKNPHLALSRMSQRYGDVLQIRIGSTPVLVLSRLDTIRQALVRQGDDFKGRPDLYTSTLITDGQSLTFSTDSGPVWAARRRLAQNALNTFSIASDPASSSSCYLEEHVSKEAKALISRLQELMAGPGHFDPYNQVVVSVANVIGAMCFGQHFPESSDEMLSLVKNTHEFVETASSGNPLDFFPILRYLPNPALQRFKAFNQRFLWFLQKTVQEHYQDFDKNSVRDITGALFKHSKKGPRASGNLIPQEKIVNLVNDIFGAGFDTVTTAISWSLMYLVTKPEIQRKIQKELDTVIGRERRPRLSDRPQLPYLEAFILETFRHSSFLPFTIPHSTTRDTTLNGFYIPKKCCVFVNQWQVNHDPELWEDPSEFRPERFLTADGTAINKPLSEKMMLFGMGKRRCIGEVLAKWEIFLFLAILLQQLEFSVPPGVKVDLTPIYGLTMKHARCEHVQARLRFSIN

The target in test [8] is T4, Carboxy-terminal domain RNA polymerase II polypeptide A small phosphatase 1 (Homo sapiens, UniProt Q9GZU7).
T4 sequence (Q9GZU7 whole entry): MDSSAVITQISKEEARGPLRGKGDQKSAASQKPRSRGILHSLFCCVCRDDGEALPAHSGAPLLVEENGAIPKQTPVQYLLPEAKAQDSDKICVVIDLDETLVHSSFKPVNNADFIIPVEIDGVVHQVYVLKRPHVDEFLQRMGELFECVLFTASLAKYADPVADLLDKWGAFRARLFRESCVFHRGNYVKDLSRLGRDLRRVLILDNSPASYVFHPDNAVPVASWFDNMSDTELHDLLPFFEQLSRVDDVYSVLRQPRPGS
Put plainly: CTDSP1 inhibitors, concentration-response, biochemical, absorbance readout, ultra-high-throughput screen actives (AID 540297). It is filed as functional.

In test [9] the test system is Streptococcus. Put plainly: GAS UMAA2166 growth inhibition – luminescence, BacTiterGlo, counter-screen for streptokinase expression inhibitor project, dose response (AID 1915).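 Also: potency for reduction of bacterial viability or growth.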 The test is classed as functional, organism-based.
Test [10] deals with Vero. Description: viability of Vero cells under compound – cytotoxicity control for flavivirus capping enzyme inhibitors (AID 588742). It is filed as functional. As to conditions: Chlorocebus sabaeus.
For test [11], the target named is Genome polyprotein (dengue virus type 2, UniProt P29990). Put plainly: flavivirus cap methylation enzyme inhibition – biochemical, confirmation dose response, primary screen (AID 588689). The test is classed as functional.
The test system of test [12] is Streptococcus sp. 'group A'. Put plainly: Streptococcus pyogenes SK(-)GAS viability under kanamycin – luminescence, BacTiterGlo, confirmation, counter-screen for streptokinase expression inhibitor project, dose response (AID 1900). The test is classed as functional, organism-based. (A counterscreen serves to expose hits that act by an unwanted route or on another target.)

The target of test [13] is T5, High affinity choline transporter 1 (Homo sapiens, UniProt Q9GZV3).
T5 sequence (Q9GZV3 whole entry): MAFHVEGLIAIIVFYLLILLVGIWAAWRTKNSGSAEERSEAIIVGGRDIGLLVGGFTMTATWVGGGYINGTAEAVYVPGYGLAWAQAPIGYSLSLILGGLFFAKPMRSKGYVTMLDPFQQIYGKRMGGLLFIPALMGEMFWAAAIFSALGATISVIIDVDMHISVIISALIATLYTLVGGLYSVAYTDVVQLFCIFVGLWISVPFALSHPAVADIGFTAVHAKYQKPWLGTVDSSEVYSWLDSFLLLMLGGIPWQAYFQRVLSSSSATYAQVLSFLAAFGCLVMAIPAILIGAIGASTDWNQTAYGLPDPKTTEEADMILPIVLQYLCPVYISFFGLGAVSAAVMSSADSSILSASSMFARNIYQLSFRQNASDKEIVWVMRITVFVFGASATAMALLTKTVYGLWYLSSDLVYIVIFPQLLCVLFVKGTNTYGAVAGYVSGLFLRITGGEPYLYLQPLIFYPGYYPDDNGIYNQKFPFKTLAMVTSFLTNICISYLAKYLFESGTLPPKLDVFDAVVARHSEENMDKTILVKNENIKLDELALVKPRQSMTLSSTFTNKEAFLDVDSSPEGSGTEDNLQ
Description: human choline transporter blockers, potency – cell-based, 5-point CRC, membrane potential dye, dose response (AID 504840). It is filed as functional.

In test [14] the target is T6, Corticotropin-releasing factor receptor 2/Corticotropin-releasing factor-binding protein (Homo sapiens, UniProt P24387+Q13324).
T6 sequence (Q13324 whole entry): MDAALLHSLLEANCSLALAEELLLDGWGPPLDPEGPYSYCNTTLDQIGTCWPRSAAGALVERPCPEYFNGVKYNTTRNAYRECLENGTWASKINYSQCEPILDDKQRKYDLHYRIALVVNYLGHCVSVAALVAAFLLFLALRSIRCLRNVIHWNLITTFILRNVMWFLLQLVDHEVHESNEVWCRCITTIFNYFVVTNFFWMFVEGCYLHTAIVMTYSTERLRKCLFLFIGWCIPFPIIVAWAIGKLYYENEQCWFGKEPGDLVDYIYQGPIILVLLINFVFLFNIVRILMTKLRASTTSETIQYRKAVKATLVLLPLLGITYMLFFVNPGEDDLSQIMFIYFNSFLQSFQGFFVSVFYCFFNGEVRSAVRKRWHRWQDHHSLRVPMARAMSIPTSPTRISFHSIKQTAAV
T6 sequence (P24387 whole entry): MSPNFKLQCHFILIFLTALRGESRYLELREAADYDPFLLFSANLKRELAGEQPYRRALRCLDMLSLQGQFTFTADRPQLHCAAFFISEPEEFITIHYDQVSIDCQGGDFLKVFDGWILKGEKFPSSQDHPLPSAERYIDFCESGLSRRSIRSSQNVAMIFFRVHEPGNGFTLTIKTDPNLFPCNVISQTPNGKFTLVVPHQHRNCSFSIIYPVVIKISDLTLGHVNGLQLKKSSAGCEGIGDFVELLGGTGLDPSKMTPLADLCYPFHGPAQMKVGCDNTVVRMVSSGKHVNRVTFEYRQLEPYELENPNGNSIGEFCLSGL
Put plainly: activators of CRF receptor 2 with binding protein – uHTS hits, confirmation (AID 602473). It is filed as functional. As to conditions: read-out: EC50_Mean.

A word on the IC50: it is the concentration that inhibits the measured activity by half. For orientation: AC50 means the concentration giving half of the maximal activity seen. Broadly, the CC50 is the concentration that lowers cell viability or growth by half.

Activity calls are given as the source filed them. Where only a bound is given, the exact number is not on record here.
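For AC50 in this document: PubChem cytochrome P450 panel assay, CYP1A2 panel member.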

Sequence of Beta-2 adrenergic receptor (P07550 whole entry): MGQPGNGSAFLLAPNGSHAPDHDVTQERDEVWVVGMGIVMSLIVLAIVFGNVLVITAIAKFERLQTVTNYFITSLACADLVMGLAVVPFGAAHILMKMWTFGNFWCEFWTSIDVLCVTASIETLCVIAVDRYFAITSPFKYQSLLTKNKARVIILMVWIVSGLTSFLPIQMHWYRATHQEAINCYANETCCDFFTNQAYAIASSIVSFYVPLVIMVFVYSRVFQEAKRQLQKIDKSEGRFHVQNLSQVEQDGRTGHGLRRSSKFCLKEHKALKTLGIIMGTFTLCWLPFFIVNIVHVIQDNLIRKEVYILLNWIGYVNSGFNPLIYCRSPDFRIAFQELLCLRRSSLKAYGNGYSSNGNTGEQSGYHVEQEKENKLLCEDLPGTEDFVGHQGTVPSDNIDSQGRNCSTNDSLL
Sequence of Genome polyprotein (P29990 2492-3391 limits assumed): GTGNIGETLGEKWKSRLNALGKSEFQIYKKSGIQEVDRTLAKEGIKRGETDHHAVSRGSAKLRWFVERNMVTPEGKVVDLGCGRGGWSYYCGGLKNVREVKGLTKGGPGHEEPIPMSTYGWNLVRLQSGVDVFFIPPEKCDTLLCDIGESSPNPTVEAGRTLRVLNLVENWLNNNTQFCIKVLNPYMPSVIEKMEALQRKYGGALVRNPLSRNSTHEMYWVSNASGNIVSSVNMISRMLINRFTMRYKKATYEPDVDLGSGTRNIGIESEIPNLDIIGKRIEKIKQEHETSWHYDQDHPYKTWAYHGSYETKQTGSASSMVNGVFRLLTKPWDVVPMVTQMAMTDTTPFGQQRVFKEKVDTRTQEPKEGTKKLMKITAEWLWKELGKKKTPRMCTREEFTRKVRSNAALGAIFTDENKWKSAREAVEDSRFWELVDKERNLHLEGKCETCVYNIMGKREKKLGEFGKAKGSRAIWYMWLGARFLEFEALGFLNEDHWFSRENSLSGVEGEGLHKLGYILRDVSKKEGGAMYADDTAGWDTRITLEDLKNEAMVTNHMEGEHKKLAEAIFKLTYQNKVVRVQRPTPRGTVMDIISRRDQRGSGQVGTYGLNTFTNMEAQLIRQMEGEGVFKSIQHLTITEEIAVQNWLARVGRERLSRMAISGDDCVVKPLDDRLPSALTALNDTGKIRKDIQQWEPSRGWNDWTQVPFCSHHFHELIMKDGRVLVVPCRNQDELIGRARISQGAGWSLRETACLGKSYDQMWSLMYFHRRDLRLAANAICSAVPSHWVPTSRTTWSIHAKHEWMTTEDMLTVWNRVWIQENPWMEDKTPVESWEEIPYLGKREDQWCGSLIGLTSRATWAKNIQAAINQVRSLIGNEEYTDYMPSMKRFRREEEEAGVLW

As to `CC(C)=CCC(C)(C)C1OCCN1C(=O)c1ccccc1` (stereo not drawn), in test [1], the EC50 is 3.3 µM (active).
As for `Nc1ccc2nc(-c3ccccc3)c(-c3ccccc3)nc2c1`, the EC50 in [2] is > 59.6 µM (inactive); in [3], 24.9 µM (active); in [4], 23.9 µM (inconclusive); in test [6], > 59.6 µM (inactive). The IC50 in test [5] was > 49.7 µM (inactive).
`O=C(Nc1cccc(-c2nc3ncccc3o2)c1)c1sc2cc(Cl)ccc2c1Cl`: in test [7], the AC50 was 25.1 µM (inconclusive). Further, the IC50 in test [8] is 7.21 µM (active). Further, in [1], the EC50 was 7.22 µM (inactive).
Consider `O=C(O)CN1C(=O)/C(=C\c2cc(Br)ccc2OCc2ccc(Cl)cc2Cl)SC1=S`, for which the EC50 in test [9] is 1.95 µM (active); in [12] it was 1.36 µM (active). For the same compound, the CC50 in test [10] is > 40 µM (active). In test [11], the 50% inhibitory concentration (IC50) was 28.8 µM (active).
On to `O=C(Nc1cc(S(=O)(=O)N2CCCCC2)ccc1O)c1ccccc1NS(=O)(=O)c1ccc(F)cc1`, for which the cytotoxic concentration (CC50) in [10] is > 40 µM (active). Further, the IC50 in test [13] was 13.2 µM (active); in [11], 67.9 µM (active). Also, in test [14], the EC50 is 1.83 µM (active).
For the compound `O=C(c1ccc(OC2CCN(Cc3ccc(C(F)(F)F)cc3)CC2)cc1)N1CCCCC1`, the EC50 in [1] was 2.59 µM (active).
